According to ChEMBL document CHEMBL5465560, “Selectivity Literature for EUbOPEN Chemogenomic Library” (2024):

What was measured:
[1] = target: Tyrosine-protein kinase JAK1 (Homo sapiens, UniProt P23458); experiment: Selectivity interaction (SelectScreen Kinase Profiling (Thermo Fisher Scientific)) EUB0001558a JAK1; settings: at 1 µM
[2] = target: Cyclin-dependent kinase 5/CDK5 activator 1 (Homo sapiens) (UniProt Q00535+Q15078); experiment: Selectivity interaction (ProQinase) EUB0000171b CDK5; type: protein-complex assay; settings: at 1 µM
Sequence of Cyclin-dependent kinase 5/CDK5 activator 1 (Homo sapiens) (Q00535 whole entry): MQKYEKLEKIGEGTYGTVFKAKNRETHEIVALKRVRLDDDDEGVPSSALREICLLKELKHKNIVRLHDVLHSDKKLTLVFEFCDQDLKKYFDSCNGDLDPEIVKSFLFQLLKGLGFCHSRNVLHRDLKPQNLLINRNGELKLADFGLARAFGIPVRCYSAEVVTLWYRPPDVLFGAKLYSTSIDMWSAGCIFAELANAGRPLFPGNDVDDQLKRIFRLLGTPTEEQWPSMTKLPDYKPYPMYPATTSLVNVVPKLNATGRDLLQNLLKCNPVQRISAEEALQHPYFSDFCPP
Sequence of Cyclin-dependent kinase 5/CDK5 activator 1 (Homo sapiens) (Q15078 99-307 partner limits assumed): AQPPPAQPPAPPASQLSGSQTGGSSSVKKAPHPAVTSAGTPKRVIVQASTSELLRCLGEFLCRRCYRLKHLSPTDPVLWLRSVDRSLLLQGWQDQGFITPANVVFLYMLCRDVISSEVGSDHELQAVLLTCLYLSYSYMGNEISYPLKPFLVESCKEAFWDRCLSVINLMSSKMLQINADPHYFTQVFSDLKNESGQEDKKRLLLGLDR

[3] = target: STE20-like serine/threonine-protein kinase (Homo sapiens, UniProt Q9H2G2); experiment: Selectivity interaction (Kinase panel (DSF assay)) EUB0001559a SLK
[4] = target: T1, Alpha-1B adrenergic receptor (Homo sapiens) (UniProt P35368); experiment: Selectivity interaction (GPCR panel (PDSP screen)) EUB0001079a ADRA1B; settings: at 10 µM
T1 sequence (whole entry): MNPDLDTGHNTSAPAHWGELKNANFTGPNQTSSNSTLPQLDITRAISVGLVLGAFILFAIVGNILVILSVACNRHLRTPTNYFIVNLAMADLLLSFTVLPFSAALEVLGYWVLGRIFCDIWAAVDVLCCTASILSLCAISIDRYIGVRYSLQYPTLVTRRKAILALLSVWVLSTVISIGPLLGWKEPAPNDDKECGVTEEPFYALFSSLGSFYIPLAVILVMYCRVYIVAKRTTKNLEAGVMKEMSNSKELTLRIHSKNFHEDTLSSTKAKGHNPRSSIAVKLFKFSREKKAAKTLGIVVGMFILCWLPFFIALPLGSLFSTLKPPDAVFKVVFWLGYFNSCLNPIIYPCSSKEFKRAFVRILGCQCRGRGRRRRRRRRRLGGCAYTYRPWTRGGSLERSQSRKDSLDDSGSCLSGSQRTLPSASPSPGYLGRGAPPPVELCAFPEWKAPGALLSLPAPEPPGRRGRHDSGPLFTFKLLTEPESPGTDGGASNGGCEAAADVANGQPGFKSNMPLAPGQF

[5] = target: ALK tyrosine kinase receptor (Homo sapiens, UniProt Q9UM73); experiment: Selectivity interaction (Kinase panel (Z-LYTE Assay)) EUB0001632a ALK; settings: at 10 µM
Sequence of ALK tyrosine kinase receptor (Q9UM73 19-1620 limits assumed): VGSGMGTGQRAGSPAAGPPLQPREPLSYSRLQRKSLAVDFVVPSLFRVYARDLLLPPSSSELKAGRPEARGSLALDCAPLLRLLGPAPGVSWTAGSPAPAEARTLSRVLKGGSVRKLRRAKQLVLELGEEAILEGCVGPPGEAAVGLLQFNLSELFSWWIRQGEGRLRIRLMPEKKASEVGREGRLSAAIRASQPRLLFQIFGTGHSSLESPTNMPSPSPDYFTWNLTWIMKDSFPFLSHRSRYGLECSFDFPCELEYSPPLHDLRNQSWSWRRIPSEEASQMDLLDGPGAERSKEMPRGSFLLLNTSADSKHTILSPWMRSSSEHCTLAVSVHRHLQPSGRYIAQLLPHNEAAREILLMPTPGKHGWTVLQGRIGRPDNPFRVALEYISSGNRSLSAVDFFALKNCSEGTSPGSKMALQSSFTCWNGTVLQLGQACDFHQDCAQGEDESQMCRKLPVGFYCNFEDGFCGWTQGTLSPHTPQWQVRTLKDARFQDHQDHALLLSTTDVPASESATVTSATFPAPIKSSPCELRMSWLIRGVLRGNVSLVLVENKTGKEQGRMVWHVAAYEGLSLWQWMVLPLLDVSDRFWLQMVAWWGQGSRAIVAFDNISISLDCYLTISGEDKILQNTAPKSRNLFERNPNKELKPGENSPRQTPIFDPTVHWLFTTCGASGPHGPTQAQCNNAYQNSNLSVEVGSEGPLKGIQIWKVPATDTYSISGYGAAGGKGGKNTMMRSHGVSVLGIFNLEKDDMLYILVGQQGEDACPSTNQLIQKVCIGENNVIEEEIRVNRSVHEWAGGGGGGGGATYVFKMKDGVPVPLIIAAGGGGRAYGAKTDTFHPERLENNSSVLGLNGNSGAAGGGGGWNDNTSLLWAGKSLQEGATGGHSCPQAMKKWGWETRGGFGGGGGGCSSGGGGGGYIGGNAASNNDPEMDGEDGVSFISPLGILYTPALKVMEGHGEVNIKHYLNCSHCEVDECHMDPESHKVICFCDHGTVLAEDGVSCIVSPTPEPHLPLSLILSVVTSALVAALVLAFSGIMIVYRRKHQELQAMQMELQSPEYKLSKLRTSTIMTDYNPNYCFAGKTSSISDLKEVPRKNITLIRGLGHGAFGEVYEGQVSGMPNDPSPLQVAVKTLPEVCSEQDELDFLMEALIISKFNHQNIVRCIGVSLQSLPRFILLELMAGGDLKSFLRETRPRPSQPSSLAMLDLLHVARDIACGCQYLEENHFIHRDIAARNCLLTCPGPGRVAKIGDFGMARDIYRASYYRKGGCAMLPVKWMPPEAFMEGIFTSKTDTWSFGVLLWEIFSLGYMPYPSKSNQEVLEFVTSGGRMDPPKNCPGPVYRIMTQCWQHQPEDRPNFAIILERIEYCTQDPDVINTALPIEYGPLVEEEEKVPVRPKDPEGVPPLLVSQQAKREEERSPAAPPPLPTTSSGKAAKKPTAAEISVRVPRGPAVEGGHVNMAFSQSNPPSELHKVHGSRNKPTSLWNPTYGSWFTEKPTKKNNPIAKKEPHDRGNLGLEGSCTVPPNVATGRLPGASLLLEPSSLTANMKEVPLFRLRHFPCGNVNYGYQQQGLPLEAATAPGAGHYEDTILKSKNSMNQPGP

[6] = target: Cyclin-dependent kinase 4/cyclin D1 (Homo sapiens) (UniProt P11802+P24385); experiment: (§1) Selectivity interaction (Rxn Biology Kinase assay) EUB0001632a CDK4; type: protein-complex assay; settings: at 10 µM
[7] = target: CDK4/Cyclin D3 (Homo sapiens) (UniProt P11802+P30281); experiment: as §1; type: protein-complex assay; settings: at 10 µM
[8] = target: Dual specificity testis-specific protein kinase 1 (Homo sapiens) (UniProt Q15569); experiment: Selectivity interaction (LanthaScreen Eu Kinase Binding Assay) EUB0001632a TESK1; settings: at 10 µM
[9] = target: T2, Inhibitor of nuclear factor kappa-B kinase subunit epsilon (Homo sapiens) (UniProt Q14164); experiment: Selectivity interaction (ActivX KiNativ screen (kinase selectivity in THP-1 cell lysates)) EUB0000639a IKBKE; type: subcellular; settings: lysate, at 0.01 µM
T2 sequence (whole entry): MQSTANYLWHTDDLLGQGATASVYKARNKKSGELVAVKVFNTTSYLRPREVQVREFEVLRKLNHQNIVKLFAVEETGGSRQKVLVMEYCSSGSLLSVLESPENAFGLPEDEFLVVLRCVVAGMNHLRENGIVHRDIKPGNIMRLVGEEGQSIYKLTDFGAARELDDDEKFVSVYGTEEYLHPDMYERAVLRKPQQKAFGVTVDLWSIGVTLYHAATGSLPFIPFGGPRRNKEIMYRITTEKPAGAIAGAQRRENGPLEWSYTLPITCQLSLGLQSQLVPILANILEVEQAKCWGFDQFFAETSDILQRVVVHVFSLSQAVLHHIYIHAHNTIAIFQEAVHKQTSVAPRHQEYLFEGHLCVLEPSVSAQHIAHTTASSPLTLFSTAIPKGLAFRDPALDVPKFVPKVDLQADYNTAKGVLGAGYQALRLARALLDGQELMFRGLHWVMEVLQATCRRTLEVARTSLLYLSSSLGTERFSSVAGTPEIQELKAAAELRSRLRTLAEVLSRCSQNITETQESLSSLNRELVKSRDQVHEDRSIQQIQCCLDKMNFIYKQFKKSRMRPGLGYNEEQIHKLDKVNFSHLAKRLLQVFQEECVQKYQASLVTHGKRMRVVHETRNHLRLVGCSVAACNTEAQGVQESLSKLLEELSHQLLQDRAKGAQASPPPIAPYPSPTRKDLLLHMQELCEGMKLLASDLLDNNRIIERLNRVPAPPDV

[10] = target: T3, Mitogen-activated protein kinase kinase kinase kinase 2 (Homo sapiens) (UniProt Q12851); experiment: Selectivity interaction (ActivX KiNativ screen (kinase selectivity in THP-1 cell lysates)) EUB0000639a MAP4K2; type: subcellular; settings: lysate, at 0.01 µM
T3 sequence (whole entry): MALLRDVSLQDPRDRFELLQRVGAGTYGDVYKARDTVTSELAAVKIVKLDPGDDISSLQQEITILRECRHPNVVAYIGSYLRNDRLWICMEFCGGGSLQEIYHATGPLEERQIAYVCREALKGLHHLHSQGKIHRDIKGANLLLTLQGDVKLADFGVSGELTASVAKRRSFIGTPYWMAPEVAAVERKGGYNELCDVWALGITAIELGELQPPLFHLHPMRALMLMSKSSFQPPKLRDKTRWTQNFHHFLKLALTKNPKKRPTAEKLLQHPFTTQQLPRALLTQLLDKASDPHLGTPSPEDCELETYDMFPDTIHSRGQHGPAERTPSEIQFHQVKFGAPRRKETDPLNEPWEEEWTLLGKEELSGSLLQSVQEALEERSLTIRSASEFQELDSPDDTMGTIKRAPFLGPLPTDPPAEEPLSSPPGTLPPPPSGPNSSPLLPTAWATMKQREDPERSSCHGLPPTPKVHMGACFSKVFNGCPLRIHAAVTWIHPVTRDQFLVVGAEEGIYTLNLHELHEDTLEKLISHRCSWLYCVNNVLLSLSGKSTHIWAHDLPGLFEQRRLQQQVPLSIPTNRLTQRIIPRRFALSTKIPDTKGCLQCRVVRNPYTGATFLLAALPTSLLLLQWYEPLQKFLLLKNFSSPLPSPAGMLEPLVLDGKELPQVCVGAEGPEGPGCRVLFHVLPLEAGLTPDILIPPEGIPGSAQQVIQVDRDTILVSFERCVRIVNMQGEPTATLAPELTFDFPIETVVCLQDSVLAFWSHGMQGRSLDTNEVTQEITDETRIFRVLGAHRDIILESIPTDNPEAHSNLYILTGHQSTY

[11] = target: Non-receptor tyrosine-protein kinase TYK2 (Homo sapiens, UniProt P29597); experiment: Selectivity interaction (ActivX KiNativ screen (kinase selectivity in THP-1 cell lysates)) EUB0000639a TYK2; type: subcellular; settings: lysate, at 0.04 µM
[12] = target: Tyrosine-protein kinase Fes/Fps (Homo sapiens) (UniProt P07332); experiment: Selectivity interaction (KinomeScan (DiscoverX)) EUB0000607a FES; settings: at 10 µM
Sequence of Tyrosine-protein kinase Fes/Fps (Homo sapiens) (P07332 whole entry): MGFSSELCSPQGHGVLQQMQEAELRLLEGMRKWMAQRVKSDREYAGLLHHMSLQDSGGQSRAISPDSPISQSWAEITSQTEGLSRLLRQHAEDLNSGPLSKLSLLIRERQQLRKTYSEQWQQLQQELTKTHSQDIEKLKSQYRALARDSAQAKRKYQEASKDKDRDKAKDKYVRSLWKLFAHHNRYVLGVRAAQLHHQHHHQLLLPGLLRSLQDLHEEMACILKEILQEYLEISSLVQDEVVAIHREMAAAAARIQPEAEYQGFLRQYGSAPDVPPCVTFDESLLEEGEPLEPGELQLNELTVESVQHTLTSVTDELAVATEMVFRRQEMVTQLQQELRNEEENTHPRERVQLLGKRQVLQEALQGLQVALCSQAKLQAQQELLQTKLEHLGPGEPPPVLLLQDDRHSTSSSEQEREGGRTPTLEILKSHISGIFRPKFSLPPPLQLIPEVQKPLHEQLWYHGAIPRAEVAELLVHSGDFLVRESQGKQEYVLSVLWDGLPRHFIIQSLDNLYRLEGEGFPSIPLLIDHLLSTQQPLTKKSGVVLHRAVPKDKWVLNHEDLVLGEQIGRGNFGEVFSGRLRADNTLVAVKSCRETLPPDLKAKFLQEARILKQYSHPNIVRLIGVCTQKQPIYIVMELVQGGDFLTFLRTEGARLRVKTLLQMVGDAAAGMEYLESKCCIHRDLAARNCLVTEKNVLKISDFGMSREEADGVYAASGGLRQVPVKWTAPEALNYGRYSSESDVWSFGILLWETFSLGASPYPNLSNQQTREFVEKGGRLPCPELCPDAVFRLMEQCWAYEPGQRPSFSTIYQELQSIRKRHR

[13] = target: TGF-beta receptor type-2 (Homo sapiens) (UniProt P37173); experiment: Selectivity interaction (KinomeScan (DiscoverX)) EUB0000618a TGFBR2; settings: at 10 µM
Sequence of TGF-beta receptor type-2 (Homo sapiens) (P37173 whole entry): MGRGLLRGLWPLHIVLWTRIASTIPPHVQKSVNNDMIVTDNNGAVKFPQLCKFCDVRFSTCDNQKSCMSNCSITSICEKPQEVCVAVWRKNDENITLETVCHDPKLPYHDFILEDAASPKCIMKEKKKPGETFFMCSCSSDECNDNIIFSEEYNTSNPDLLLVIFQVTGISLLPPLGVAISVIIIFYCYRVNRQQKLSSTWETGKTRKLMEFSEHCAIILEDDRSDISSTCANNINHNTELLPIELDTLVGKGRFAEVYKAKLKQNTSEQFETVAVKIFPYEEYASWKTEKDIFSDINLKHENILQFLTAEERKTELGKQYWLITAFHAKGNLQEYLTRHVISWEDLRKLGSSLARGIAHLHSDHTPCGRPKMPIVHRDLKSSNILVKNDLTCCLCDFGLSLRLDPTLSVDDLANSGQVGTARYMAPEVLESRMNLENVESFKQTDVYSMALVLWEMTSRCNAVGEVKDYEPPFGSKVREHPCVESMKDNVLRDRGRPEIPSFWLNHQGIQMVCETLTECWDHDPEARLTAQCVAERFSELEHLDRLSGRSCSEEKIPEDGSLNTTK

[14] = target: Vascular endothelial growth factor receptor 2 (Homo sapiens, UniProt P35968); experiment: Selectivity interaction (KinomeScan (DiscoverX)) EUB0001619a KDR; settings: at 1 µM
Sequence of Vascular endothelial growth factor receptor 2 (P35968 whole entry): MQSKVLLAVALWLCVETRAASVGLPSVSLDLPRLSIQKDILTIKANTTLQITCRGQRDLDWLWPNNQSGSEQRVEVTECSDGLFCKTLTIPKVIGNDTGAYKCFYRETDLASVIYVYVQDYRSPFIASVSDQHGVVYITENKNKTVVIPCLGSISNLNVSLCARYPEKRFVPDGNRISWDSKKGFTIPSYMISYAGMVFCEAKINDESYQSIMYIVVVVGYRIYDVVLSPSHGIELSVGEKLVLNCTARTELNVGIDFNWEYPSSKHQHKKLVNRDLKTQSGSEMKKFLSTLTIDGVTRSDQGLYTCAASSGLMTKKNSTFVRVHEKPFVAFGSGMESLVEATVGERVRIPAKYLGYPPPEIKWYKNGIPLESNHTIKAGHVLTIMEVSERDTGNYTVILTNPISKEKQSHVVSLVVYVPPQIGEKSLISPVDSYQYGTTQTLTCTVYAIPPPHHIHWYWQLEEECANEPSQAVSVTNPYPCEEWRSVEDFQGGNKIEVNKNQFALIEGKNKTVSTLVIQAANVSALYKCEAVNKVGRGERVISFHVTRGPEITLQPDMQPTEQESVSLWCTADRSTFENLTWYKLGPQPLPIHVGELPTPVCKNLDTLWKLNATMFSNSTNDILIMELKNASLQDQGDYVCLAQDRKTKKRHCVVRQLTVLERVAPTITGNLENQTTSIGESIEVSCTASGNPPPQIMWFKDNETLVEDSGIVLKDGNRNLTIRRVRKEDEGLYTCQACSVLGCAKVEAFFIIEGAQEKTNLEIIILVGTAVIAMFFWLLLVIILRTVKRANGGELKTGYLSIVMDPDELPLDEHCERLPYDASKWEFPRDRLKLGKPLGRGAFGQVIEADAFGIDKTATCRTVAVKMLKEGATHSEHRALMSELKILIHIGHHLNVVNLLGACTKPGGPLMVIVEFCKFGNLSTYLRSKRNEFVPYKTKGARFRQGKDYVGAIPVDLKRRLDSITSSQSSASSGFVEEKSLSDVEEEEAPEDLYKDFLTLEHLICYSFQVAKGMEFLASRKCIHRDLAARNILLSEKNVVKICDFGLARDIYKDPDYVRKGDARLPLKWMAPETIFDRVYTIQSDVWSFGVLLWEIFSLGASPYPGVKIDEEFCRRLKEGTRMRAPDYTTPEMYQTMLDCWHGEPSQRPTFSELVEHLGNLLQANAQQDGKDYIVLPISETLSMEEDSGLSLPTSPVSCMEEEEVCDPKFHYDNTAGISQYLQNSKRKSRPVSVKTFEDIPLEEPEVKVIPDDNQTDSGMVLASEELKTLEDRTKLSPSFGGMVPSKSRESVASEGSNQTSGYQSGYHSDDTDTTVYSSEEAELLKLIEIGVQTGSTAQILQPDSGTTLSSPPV

## CC(C)(O)[C@H](F)CN1Cc2cc(NC(=O)c3cnn4cccnc34)c(N3CCOCC3)cc2C1=O
[1]
  % of inhibition: 83.5%

## C=CC(=O)Nc1cccc(C(=O)Nc2ccc(Nc3cc(-c4[nH]c(SC)nc4C)ccn3)cc2)c1
[2]
  % of control: 74%

## CN(C(=O)c1cnn2cccnc12)c1cc2c(cc1N1CCOCC1)C(=O)N(C[C@@H](F)C(C)(C)O)C2
[3]
  dTM: 1 K

## Nc1cnc(N2CCc3cc(S(=O)(=O)Nc4c(F)cc(Cl)cc4F)cc(N4CCCC4=O)c32)nc1 [TP-020n]
[4]
  % of inhibition: 4.68%

## Cn1cc(-n2cnc3c(NCc4nc5cc(Cl)c(Cl)cc5[nH]4)nc(N4CCOCC4)nc32)cn1
[5]
  % of control: -0.105%
[6]
  % of inhibition: 46.7%
[7]
  % of inhibition: 46.3%
[8]
  % of inhibition: -5.55%

## CC[C@@H]1[C@H](F)C(=O)N[C@@H]1COc1nccc2cc(C(N)=O)c(OC)cc12 [ZIMLOVISERTIB]
[9]
  % of inhibition: -51.9%
[10]
  % of inhibition: 13.3%
[11]
  % of inhibition: 6.4%

## CNC(=O)Nc1ccc(-c2nc(N3CC4CCC(C3)O4)c3cnn(C4CCC5(CC4)OCCO5)c3n2)cc1
[12]
  % of control: 100%

## O[C@H]1CC[C@H](Nc2ncc3nc(Nc4c(F)cc(F)cc4F)n([C@H]4CCOC4)c3n2)CC1
[13]
  % of control: 71%

## N#Cc1cccc(-c2c[nH]c3ncnc(N4CCOCC4)c23)c1
[14]
  % of control: 62%
